Data taken from publication PMC11385697, “Bibacillin 1: a two-component lantibiotic from Bacillus thuringiensis” (RSC Chemical Biology, 2024).

Assays:
[1] = tested on: T1, lipid II consumption by E. coli PBP1b; experiment: In vitro peptidoglycan synthesis assay with lipid II substrate (TLC); assay type: biochemical; conditions: 4 equivalents of peptide relative to lipid II; 30 °C, 2 h; thin layer chromatography; mixture 1 : 1
T1 construct: made in house
Method: A solution of lipid II (1.5 nmol) in 1 : 1 CHCl3 : MeOH that was prepared by a previously disclosed procedure[87] was added to a low binding Eppendorf tube and concentrated to remove any organic solvent. Triton X-100 (1% v/v, 2 μL) was added to the residue and the mixture was sonicated briefly before diluting with 37.5 μL of reaction buffer (20 mM MES, 2 mM MgCl2, 2 mM CaCl2, pH = 5.5). The solution was then transferred to a new low binding Eppendorf tube containing lanthipeptide. The mixture was vortexed and briefly sonicated to ensure dissolution. The mixtures were incubated for 10 min at room temperature before adding PBP1b (6 μg), which was prepared as described elsewhere,[77] and then incubated at 30 °C. After 2 h, 150 μL nBuOH : AcOH-pyridine (2 : 1) was added to the reaction mixture and the organic layer was removed, washed with 40 μL of water and then concentrated. The residue was dissolved in 12 μL of 1 : 1 MeOH : CHCl3 and 3 μL was deposited onto a silica gel plate. The TLC plate was developed in mobile phase (88 : 48 : 10 : 1 CHCl3 : MeOH : H2O : NH4OH) for 10 min before drying and staining the plate with cerium ammonium sulfate. The plate was documented immediately after the staining procedure was completed.

[2] = tested on: M. luteus ATCC 4698; experiment: Membrane depolarization assay, DiSC3(5); conditions: DiSC3(5) fluorescence; M. luteus OD600 = 0.2; 30 min; peptides individually
Method: (B) DiSC3(5) fluorescence signal after incubation of M. luteus (OD600 = 0.2) with Bib1α or Bib1β individually or as a 1 : 1 mixture for 30 min. […] In all cases, a total peptide concentration of 5 μM was used.
The mixture was transferred to a 96-well black plate and the fluorescence of DiSC3(5) was measured using an excitation wavelength of 622 nm and an emission wavelength of 670 nm throughout the experiment. The fluorescence signal was measured for 8 min prior to the addition of peptides. After adding peptides, the fluorescence signal was monitored for 30 min. The maximum fluorescence signal achieved over the entire course of the experiment was considered to be a metric of membrane depolarization activity and was plotted as a function of peptide concentration.

[3] = Dynamic light scattering of aggregates; assay type: physicochemical; conditions: phosphate buffered saline pH = 7.4, room temperature, total peptide 1 μM; for average diameter of aggregates (DLS): SDS-free
Method: Fig. 6 Exploring the quorum sensing mechanism of bibacillin 1. (A) Assays to assess whether bibacillin 1 triggers the CylR1/R2 system. A reporter strain of E. faecalis with LacZ expression under the control of the CylR1/R2 system was seeded into soft agar containing X-gal. Next, 300 pmol of Bib1α, Bib1β, and Bib1βDha either separately or as 1 : 1 mixtures were deposited onto the soft agar layer. Nisin (300 pmol) and CylLS′′ (30 pmol) were used as negative and positive controls, respectively. (B) Size distributions obtained using dynamic light scattering showing the oligomeric states of Bib1α, Bib1β, and Bib1α : Bib1β (1 : 1) in phosphate buffered saline (pH = 7.4) at room temperature. In each case, the total peptide concentration was 1 μM.
Enzyme mixtures used for molecular biology were purchased from New England BioLabs (NEB) (Ipswich, MA). Chemicals were purchased from Sigma-Aldrich (St. Louis, MO). Growth media were purchased from Becton, Dickinson and Company (Franklin Lake, NJ) or Fisher Scientific (Pittsburgh, PA). Single stranded DNA used as primers for PCR were purchased from Integrated DNA Technologies (Newark, NJ). Gene fragments were purchased from Twist Bioscience (San Francisco, CA). The sequences of primers and gene fragments can be found in Tables S2 and S3 (ESI ^†), respectively. Whole plasmid sequencing was performed by Plasmidsaurus using Oxford Nanopore Technology with custom analysis and annotation. Matrix-assisted laser desorption/ionization time-of-flight mass spectrometry (MALDI-TOF MS) analysis was performed on a Bruker UltrafleXtreme MALDI-TOF mass spectrometer (Bruker Daltonics) at the University of Illinois School of Chemical Sciences Mass Spectrometry. All samples analyzed by MALDI-TOF MS were co-crystallized with Super DHB MALDI matrix purchased from Sigma-Aldrich. Semi-preparative reversed phase HPLC (R-HPLC) was performed on an Agilent 1260 infinity II LC system. Fluorescence emission intensities and optical densities were determined using a Biotek Synergy H4. Dynamic light scattering (DLS) analysis was performed on a Zetasizer Nanoseries (Malvern Panalytical,). CylLS′′ and CylLL′′ were prepared using a previously described procedure.[36] Nisin was isolated from commercially available crude extracts of Lactococcus lactis (Sigma Aldrich).

[4] = In vitro pore formation assay, pyranine-encapsulated liposomes; conditions: total peptide 5 μM; for pore formation activity in liposomes: pH-dependent pyranine fluorescence, DOPC liposomes
Method: To investigate the lipid II-dependence of the pore formation activity of bibacillin 1, pyranine-encapsulated liposomes were prepared containing or lacking lipid II and pore formation was monitored via pH-dependent pyranine fluorescence.[79]
This assay was conducted as described elsewhere.[79]

[5] = tested on: rabbit erythrocytes; experiment: Agar diffusion hemolysis assay; assay type: cell-based; conditions: 300 pmol peptide spotted (3 μL of 100 μM in PBS); 5% (v/v) rabbit erythrocytes in 0.7% BHI agar; 37 °C, 16 h; mixtures 1 : 1
Method: Cytolysin was used as a positive control.
Defibrinated rabbit erythrocytes (Hemostat) were washed by 5-fold dilution in cold sterile PBS, followed by centrifugation at 1000g for 10 min and decanting. This process was repeated until the supernatant was clear. The washed erythrocytes were diluted to a concentration of 5% (v/v) in molten BHI containing 0.7% agar cooled to 50 °C and the mixture was immediately deposited onto a warm 2% BHI agar plate. After setting at room temperature for at least 30 min, 3 μL of peptide solution diluted in PBS to a concentration of 100 μM was deposited onto the agar plate and the plate was allowed to stand for another 30 min. The plate was then incubated at 37 °C for 16 h before documentation.

[6] = tested on: M. luteus ATCC 4698; experiment: Time-kill assay; assay type: cell-based, Micrococcus luteus; conditions: total peptide 20 μM, 30 °C; for killing activity in time-kill assay: mixture 1 : 1
Method: The solutions were incubated at 30 °C with shaking. At each time point, 20 μL was removed from each culture and immediately streaked onto tryptic soy broth agar plates. The plates were incubated at 30 °C for 36–48 h and colonies were counted.

[7] = SDS-PAGE analysis of oligomerization; assay type: physicochemical; conditions: in the presence of SDS
Method: To determine whether bibacillin 1 could quorum sense through an aggregation mechanism, the aggregation propensity of bibacillin 1 was analyzed using SDS-PAGE and dynamic light scattering (DLS). […] Since SDS can influence aggregation, the aggregation of bibacillin 1 was further investigated under SDS-free conditions using DLS (Fig. 6B). Bib1α exists in solution as aggregates that are 159 nm in diameter on average (PDI = 0.224) and Bib1β forms aggregates that are 291 nm in diameter on average (PDI = 0.384). […] Confirmation of this hypothesis will require in vitro studies with Bib1R1/R2.

[8] = tested on: rabbit erythrocytes; assay type: cell-based; conditions: total peptide concentration 2 μM; 1 h at 37 °C; mixture 1 : 1
Method: Solution phase hemolysis assays were conducted as described previously.[36]
Fig. S2. […] A) Hemoglobin release […]
erythrocytes were treated with 0.03% v/v triton X-100. Negative control contained only buffer. A total peptide concentration of 2 µM was used in each case. B) Extent of hemolysis after treating freshly washed rabbit erythrocytes with 1:1 of CylLS”:CylLL” at 37 ̊C for 1 h. Data was fit to a […]
(1 picture or pasted object on this page, not shown here)

| Structure (SMILES) | protection of lipid II from consumption by PBP1b [1] | membrane depolarization activity, all concentrations tested [2] | PDI of aggregates (DLS) [3] | size distribution of aggregates (DLS) [3] | average diameter of aggregates (DLS) [3] [nm] | pore formation activity in liposomes [4] | hemolytic activity on an agar plate [5] | time after treatment at which minimal cell counts were reached ([6]; about 10^6 CFU per mL) [h] | killing activity in time-kill assay ([6]; about 10^6 CFU per mL) | oligomerization by SDS-PAGE [7] | hemolysis in solution (hemoglobin release, absorbance at 415 nm) [8] | lipid II dependence of pore formation activity ([4]; DOPC liposomes containing or lacking 0.1 mol% lipid II) | time after which cells began to recover from treatment [6] [h] |
| --- | --- | --- | --- | --- | --- | --- | --- | --- | --- | --- | --- | --- | --- |
| CC=C1NC(=O)[C@@H](N)[C@@H](C)SC[C@@H](C(=O)N[C@@H](C)C(=O)N[C@H](C(=O)NCC(=O)NCC(=O)NCC(=O)N[C@@H](CC(C)C)C(=O)N[C@@H](C)C(=O)N[C@@H](CC(C)C)C(=O)NCC(=O)N[C@@H](Cc2ccccc2)C(=O)N[C@@H](CO)C(=O)N[C@H](C(=O)N[C@@H]2CSC[C@@H](C(=O)O)NC(=O)[C@H](Cc3ccc(O)cc3)NC(=O)[C@H]([C@@H](C)CC)NC(=O)[C@H](CCCCN)NC2=O)[C@@H](C)CC)[C@@H](C)CC)NC(=O)[C@H](C(C)C)NC(=O)[C@@H]2CCCN2C1=O [Bib1β] | incapable of protecting lipid II | did not show strong membrane depolarization activity | 0.384 | bimodal | 291 | did not show pore formation activity | showed hemolytic activity | 8 | bactericidal | oligomeric in the presence of SDS | did not induce hemolysis | – | – |
| C=C(NC(=O)[C@H](C)NC(=O)[C@@H]1CS[C@H](C)[C@H](N)C(=O)NC(=C)C(=O)N2CCC[C@H]2C(=O)N[C@@H](C)C(=O)N1)C(=O)N[C@@H](C)C(=O)N[C@@H](CCSC)C(=O)N[C@@H](CC(C)C)C(=O)N[C@@H](Cc1ccc(O)cc1)C(=O)N[C@@H](CC(C)C)C(=O)N[C@@H](CCC(N)=O)C(=O)NCC(=O)N[C@H](C(=O)NC(=CC)C(=O)N[C@H](C(=O)NC(=C)C(=O)N[C@@H](CC(C)C)C(=O)NCC(=O)N[C@@H](CC(C)C)C(=O)N[C@@H]1CSC[C@@H](C(=O)O)NC(=O)[C@H](Cc2c[nH]cn2)NC(=O)[C@H](CCSC)NC(=O)[C@H](CCCNC(=N)N)NC1=O)C(C)C)C(C)C [Bib1α] | incapable of protecting lipid II | did not show strong membrane depolarization activity | 0.224 | – | 159 | showed pore formation activity | showed hemolytic activity | – | bactericidal | oligomeric in the presence of SDS | did not induce hemolysis | somewhat enhanced by the addition of lipid II | 4 |
| C=C(NC(=O)[C@H](Cc1ccccc1)NC(=O)CNC(=O)[C@H](CC(C)C)NC(=O)[C@H](C)NC(=O)[C@H](CC(C)C)NC(=O)CNC(=O)CNC(=O)CNC(=O)[C@@H](NC(=O)[C@H](C)NC(=O)[C@@H]1CS[C@H](C)[C@H](N)C(=O)NC(=CC)C(=O)N2CCC[C@H]2C(=O)N[C@@H](C(C)C)C(=O)N1)[C@@H](C)CC)C(=O)N[C@H](C(=O)N[C@@H]1CSC[C@@H](C(=O)O)NC(=O)[C@H](Cc2ccc(O)cc2)NC(=O)[C@H]([C@@H](C)CC)NC(=O)[C@H](CCCCN)NC1=O)[C@@H](C)CC [Bib1βDha] | – | – | – | – | – | – | did not show any hemolytic activity beyond that of a negative control | – | – | – | – | – | – |
